Laboratory results from publication PMC8400955 (Pharmaceuticals, 2021).

Tests used:
monkey hepatocytes = assay: Metabolic stability in monkey hepatocytes; format: in vitro ADME; conditions: 1 μM
Experimental: Hepatocytes of humans (#X008001), dogs (#M00205), rats (#M00005), and mice (#M005052) were purchased from BioIVT, NY, USA. Monkey hepatocytes were procured from RILD, Shanghai, China. The metabolic stability of ZB716 in human, monkey, dog, rat and mouse hepatocytes was investigated by incubating ZB716 with human, monkey, dog, rat, and mouse hepatocytes (0.5 × 10^6 cells/mL), or with incubation medium only.
parent disappearance vs. incubation time curve.
Scaled-up Clint = kV/N × Scaling Factor
metabolite formed during the reaction.

[1] = 4-week repeat-dose toxicity/TK study in rats; format: in vivo, Sprague Dawley rats; conditions: for AUC(0-t) / Cmax / Tmax: Sprague Dawley (Crl: CD (SD)), rat, plasma, po
Experimental: The PK of ZB716 was investigated in a 4-week repeat-dose toxicity study in rats. Groups of Sprague Dawley rats (n = 10/sex/group; n = 3/sex/TK group) were orally administered ZB716 (5% EtOH, 15% PG, 5% Solutol, and 75% of 40% HP-β-CD in DI water) at dose levels of 25, 100, and 400 mg/kg/day for 4 weeks. The plasma concentration of ZB716 was measured at various times through to 24 h post-dose on days 1 and 28.
Four-to-six-week-old Sprague Dawley rats (Crl: CD (SD)) (SPF/VAF) were purchased from Beijing Vital River Laboratory Animal Technology, Co. Ltd.). Six-month-old beagle dogs were purchased from Beijing Marshall Biotechnology Co. Ltd. Animals were quarantined/acclimated for 2–6 weeks prior to dose initiation. Both Sprague Dawley rats and beagle dogs were given oral administration of ZB716 (20% PG, 5% Solutol, and 75% of 40% HP-β-CD in water) at different dose levels. After treatment with the test articles, whole blood was collected from each study animal by puncture of the tail vein (0.4 mL of whole blood from rats) and/or the peripheral vein (0.6 mL of whole blood from dogs) into tubes containing K2EDTA at each timepoint: pre-dose, and 0.5, 1, 2, 4, 8, and 24 h post-dose. The plasma samples were divided into 2 aliquots (approximately equal in volume) and stored frozen at −75 ± 15 °C within 2 h of the collection until analysis at Pharmaron, China.
The stock solution of ZB716 (5.0 mg/mL) and ZB716-d6 (1 mg/mL) in ACN:DI Water = 1:1 was prepared and stored at −20 ± 5 °C. The desired serial concentrations of working reference analyte solutions were achieved by diluting a stock analyte solution with 50% acetonitrile (0.1% formic acid) in water solution. The bioanalytical LC–MS/MS method was validated for quantitative determination of ZB716 in Sprague Dawley rat plasma and beagle dog plasma, with acceptable selectivity, sensitivity, calibration curve, precision, and accuracy. This method is applicable for the determination of ZB716 in Sprague Dawley rat plasma and beagle dog plasma, with a lower limit of quantification of 20.0 ng/mL, and an upper limit of quantification of 10,000 ng/mL.
Five microliters of diluted supernatant was injected into the LC–MS/MS system (Shimadzu LC30AD HPLC system with a SynergiTM 4 μm Fusion-RP 80 Å (50 × 2 mm) column using gradient elution and a Triple Quad 5500 mass spectrometer) for quantitative analysis. The mobile phases used were 0.1% formic acid in deionized water and 0.1% formic acid in acetonitrile. The pharmacokinetic parameters T1/2 (the biological half-life), Cmax (maximal concentration), Tmax (time at which Cmax is observed), and AUC (area under the plasma concentration–time curve) were calculated from the plasma concentration versus time data using WinNonlin (Phoenix^TM, version 8.1, Mountain View, CA, USA). All PK studies were conducted by Pharmaron in Beijing, China.

CYP2C8 = biological target: T1, CYP2C8 (Homo sapiens, UniProt P10632); assay: CYP inhibition in human liver microsomes, CYP2C8; format: in vitro ADME; conditions: HLM, marker substrate Amodiaquine
T1 sequence (P10632 1-490): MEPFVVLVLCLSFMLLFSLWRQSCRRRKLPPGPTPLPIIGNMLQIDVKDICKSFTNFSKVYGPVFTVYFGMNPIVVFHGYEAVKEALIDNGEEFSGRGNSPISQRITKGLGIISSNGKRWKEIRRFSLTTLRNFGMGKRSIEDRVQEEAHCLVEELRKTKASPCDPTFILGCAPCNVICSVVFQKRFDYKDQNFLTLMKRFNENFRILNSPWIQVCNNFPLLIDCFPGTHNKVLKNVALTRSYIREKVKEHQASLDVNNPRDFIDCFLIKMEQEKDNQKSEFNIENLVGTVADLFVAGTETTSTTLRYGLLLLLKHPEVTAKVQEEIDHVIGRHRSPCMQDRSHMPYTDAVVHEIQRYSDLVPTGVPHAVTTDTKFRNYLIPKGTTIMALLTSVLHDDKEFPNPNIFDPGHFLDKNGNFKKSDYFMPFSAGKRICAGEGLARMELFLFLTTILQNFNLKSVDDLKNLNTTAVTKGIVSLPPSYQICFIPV
Experimental: . The inhibition of CYP2B6 and 3A4 (when midazolam was used as the substrate) by ZB716 was not observed. The inhibitory potential of ZB716 on human CYP enzyme activities appears relatively low.
The final concentrations of ZB716 in the incubation system were 0, 0.05, 0.15, 0.5, 1.5, 5, and 15 µM (final organic solvent concentration ≤ 1%). […] . […] The concentrations of the isoform-specific metabolites derived from marker substrates were measured by UPLC–MS/MS. The IC50 values were calculated from the percentages of the rate of the metabolite formation relative to non-inhibited controls vs. the concentrations of ZB716 or positive control inhibitors. All incubations were performed in triplicate. The mean of the enzyme activity (% of non-inhibited control) for each concentration was plotted against the log inhibitor concentration, and fitted to an IC50 curve.

[2] = female, 25 mg/kg/day, day 1, PO 25 mg/kg/day, Female
[3] = female, 25 mg/kg/day, day 28, PO 25 mg/kg/day, Female
[4] = female, 100 mg/kg/day, day 1, PO 100 mg/kg/day, Female
[5] = female, 100 mg/kg/day, day 28, PO 100 mg/kg/day, Female
[6] = female, 400 mg/kg/day, day 1, PO 400 mg/kg/day, Female
[7] = female, 400 mg/kg/day, day 28, PO 400 mg/kg/day, Female
[8] = male, 25 mg/kg/day, day 1, PO 25 mg/kg/day, Male
[9] = male, 25 mg/kg/day, day 28, PO 25 mg/kg/day, Male
[10] = male, 100 mg/kg/day, day 1, PO 100 mg/kg/day, Male
[11] = male, 100 mg/kg/day, day 28, PO 100 mg/kg/day, Male
[12] = male, 400 mg/kg/day, day 1, PO 400 mg/kg/day, Male
[13] = male, 400 mg/kg/day, day 28, PO 400 mg/kg/day, Male

## C[C@]12CC[C@@H]3c4ccc(B(O)O)cc4C[C@@H](CCCCCCCCC[S+]([O-])CCCC(F)(F)C(F)(F)F)[C@H]3[C@@H]1CC[C@@H]2O (stereo partly drawn) [ZB716, fulvestrant-3-boronic acid]
Monkey hepatocytes
  Remaining at 120 min: 4.41 ± 0.46%
[1]; PO 25, 100, 400 mg/kg/day for 4 weeks
  test-article-related mortality or moribundity: no test-article-related mortality or moribundity
[1]; [2]
  AUC(0-t): 7700 ng·h/mL
  Cmax: 1310 ng/mL
  Tmax: 1 h
[1]; [3]
  AUC(0-t): 8040 ng·h/mL
  Cmax: 1770 ng/mL
  Tmax: 1 h
[1]; [4]
  AUC(0-t): 42200 ng·h/mL
  Cmax: 3200 ng/mL
  Tmax: 1 h
[1]; [5]
  AUC(0-t): 24500 ng·h/mL
  Cmax: 3850 ng/mL
  Tmax: 1 h
[1]; [6]
  AUC(0-t): 121000 ng·h/mL
  Cmax: 11900 ng/mL
  Tmax: 2 h
[1]; [7]
  AUC(0-t): 51800 ng·h/mL
  Cmax: 4850 ng/mL
  Tmax: 2 h
[1]; [8]
  AUC(0-t): 5400 ng·h/mL
  Cmax: 1040 ng/mL
  Tmax: 0.5 h
[1]; [9]
  AUC(0-t): 4750 ng·h/mL
  Cmax: 1310 ng/mL
  Tmax: 0.5 h
[1]; [10]
  AUC(0-t): 15700 ng·h/mL
  Cmax: 1870 ng/mL
  Tmax: 1 h
[1]; [11]
  AUC(0-t): 20100 ng·h/mL
  Cmax: 2840 ng/mL
  Tmax: 0.5 h
[1]; [12]
  AUC(0-t): 52400 ng·h/mL
  Cmax: 3400 ng/mL
  Tmax: 1 h
[1]; [13]
  AUC(0-t): 50700 ng·h/mL
  Cmax: 4060 ng/mL
  Tmax: 2 h
CYP2C8
  IC50: 6.27 µM
